Assay results: patent US20110130437A1, “SALT FORMS OF A 6-FLUORO-1,2-DIHYDRO-2-OXO-3H-INDOL-3-YLIDENE DERIVATIVE, PROCESS FOR THEIR MANUFACTURE AND PHARMACEUTICAL COMPOSITIONS CONTAINING SAME” (BOEHRINGER INGELHEIM INTERNATIONAL GMBH, priority 2008, published 2011)
“Also recorded” adds a separate entry of the source.

How the values were obtained:
Assay type in all cases: physicochemical
[1] = Thermal gravimetry (TG) loss of weight; conditions: for loss of weight as measured by thermal gravimetry (TG): crystalline salt forms
Experimental: The crystalline form of the monohydrochloride salt according to the invention is further characterised by a weight loss of ca. 1.6-1.8% water up to 130° C., as determined by Thermal […]). Under standard conditions, the monohydrochloride salt form of the compound according to the invention is present in the form of the hemihydrate, from which water escapes at a temperature of about 130° C. The TG diagram is also depicted in FIG. 1. For example, the sodium and tartrate salt forms have less good crystallinity properties, which affects the stability of the drug substance. […] Thus, the chloride, succinate and bromide salt forms have unexpectedly better crystalline properties for pharmaceutical development than the sodium and tartrate salt forms.

[2] = Hygroscopicity of the salt forms; conditions: for hygroscopicity: in words, judged from TG loss of weight
Text: The monohydrochloride salt form of the compound according to the invention, namely 4-[(Z)-[[4-[(dimethylamino)methyl]phenyl]amino](6-fluoro-1,2-dihydro-2-oxo-3H-indol-3-ylidene)methyl]-benzenepropanoic acid monohydrochloride, is a yellow crystalline powder with irregular shaped crystals. […] For example, the sodium and tartrate salt forms have less good crystallinity properties, which affects the stability of the drug substance. […] Thus, the chloride, succinate and bromide salt forms have unexpectedly better crystalline properties for pharmaceutical development than the sodium and tartrate salt forms.

[3] = Solubility in aqueous media over the pH range; conditions: over a wide pH-range
Text: (§1) Furthermore, although all the above mentioned salt forms are characterized by a low solubility over almost the whole pH range, the chloride salt form presents the advantage of a better dissolution rate.

[4] = Intrinsic dissolution rate
Text: as §1

[5] = Crystallinity after intensive milling or compression
Text: The monohydrochloride salt form of the compound according to the invention, namely 4-[(Z)-[[4-[(dimethylamino)methyl]phenyl]amino](6-fluoro-1,2-dihydro-2-oxo-3H-indol-3-ylidene)methyl]-benzenepropanoic acid monohydrochloride, is a yellow crystalline powder with irregular shaped crystals.

Compound	loss of weight as measured by thermal gravimetry (TG) [1]	hygroscopicity [2]	solubility in aqueous media [3]	intrinsic dissolution rate [4]	weight loss of water, determined by Thermal Gravimetry (TG) ([1]; up to 130° C., crystalline form)	hygroscopicity ([2]; monohydrochloride)	change in crystallinity [5]	hygroscopicity ([2]; listed as monohydrochloride salt form, monohydrochloride)	change in crystal modification ([2]; on moisture uptake (slightly hygroscopic))
CN(C)Cc1ccc(N/C(=C2\C(=O)Nc3cc(F)ccc32)c2ccc(CCC(=O)O)cc2)cc1.Cl [monohydrochloride, 4-[(Z)-[[4-[(dimethylamino)methyl]phenyl]amino](6-fluoro-1,2-dihydro-2-oxo-3H-indol-3-ylidene)methyl]-benzenepropanoic acid monohydrochloride]	ca. 1.7%	–	rather low solubility	acceptable fast	1.6-1.8%	slight hygroscopicity	No significant change in crystallinity	slightly hygroscopic; also recorded: slight hygroscopicity	no change in crystal modification is observed
CN(C)Cc1ccc(N/C(=C2\C(=O)Nc3cc(F)ccc32)c2ccc(CCC(=O)O)cc2)cc1 [succinate, 4-[(Z)-[[4-[(dimethylamino)methyl]phenyl]amino](6-fluoro-1,2-dihydro-2-oxo-3H-indol-3-ylidene)methyl]-benzenepropanoic acid]	ca. 1.5%	slight hygroscopicity	rather low solubility	very slow	–	–	–	–	–

Second part, led by results:

loss of weight as measured by thermal gravimetry (TG) [1]	hygroscopicity [2]	solubility in aqueous media [3]	intrinsic dissolution rate [4]	weight loss of water, determined by Thermal Gravimetry (TG) ([1]; up to 130° C., crystalline form)	hygroscopicity ([2]; monohydrochloride)	change in crystallinity [5]	Compound	hygroscopicity ([2]; listed as monohydrochloride salt form, monohydrochloride)	change in crystal modification ([2]; on moisture uptake (slightly hygroscopic))
ca. 2.2%	slight hygroscopicity	rather low solubility	very slow	–	–	–	CN(C)Cc1ccc(N/C(=C2\C(=O)Nc3cc(F)ccc32)c2ccc(CCC(=O)O)cc2)cc1 [bromide, 4-[(Z)-[[4-[(dimethylamino)methyl]phenyl]amino](6-fluoro-1,2-dihydro-2-oxo-3H-indol-3-ylidene)methyl]-benzenepropanoic acid]	–	–
ca. 15%	strong hygroscopicity	–	–	–	–	–	CN(C)Cc1ccc(N/C(=C2\C(=O)Nc3cc(F)ccc32)c2ccc(CCC(=O)O)cc2)cc1 [sodium, 4-[(Z)-[[4-[(dimethylamino)methyl]phenyl]amino](6-fluoro-1,2-dihydro-2-oxo-3H-indol-3-ylidene)methyl]-benzenepropanoic acid]	–	–
ca. 4.3%	strong hygroscopicity	–	–	–	–	–	CN(C)Cc1ccc(N/C(=C2\C(=O)Nc3cc(F)ccc32)c2ccc(CCC(=O)O)cc2)cc1 [tartrate, 4-[(Z)-[[4-[(dimethylamino)methyl]phenyl]amino](6-fluoro-1,2-dihydro-2-oxo-3H-indol-3-ylidene)methyl]-benzenepropanoic acid]	–	–
